Patent US20260285850A1, “SUBSTITUTED OXAZOLIDINONES AND IMIDAZOLINONES AS HERBICIDES” (FMC CORPORATION, priority 2023, published 2026)

What was measured:
Assay type in all cases: in vivo
[1] = test system: wheat (Triticum aestivum); experiment: Test A postemergence application, visual injury rating 0-100; settings: 10 days
Summary of the method: (§1)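 Scale 0–100 (no effect to complete control), visual, versus untreated controls, read 10 days after application. Application: preemergence directed spray onto seeded loam–sand soil, or postemergence to young plants; formulation in non-phytotoxic solvent with surfactant.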

[2] = test system: galium (catchweed bedstraw, Galium aparine); experiment: as above; settings: 10 days
Summary of the method: as §1

soybean (Glycine max) [3] = experiment: as above; settings: 10 days
Summary of the method: as §1

[4] = test system: palmer (palmer amaranth, palmer pigweed, Amaranthus palmeri); experiment: as above; settings: 10 days
Summary of the method: as §1

[5] = test system: horseweed (Erigeron canadensis); experiment: as above; settings: 10 days
Summary of the method: as §1

[6] = test system: oat, wild (wild oat, Avena fatua); experiment: as above; settings: 10 days
Summary of the method: as §1

corn (Zea mays) [7] = experiment: as above; settings: 10 days
Summary of the method: as §1

[8] = test system: green foxtail (Setaria viridis); experiment: as above; settings: 10 days
Summary of the method: as §1

[9] = test system: ryegrass, Italian (italian ryegrass, Lolium multiflorum); experiment: as above; settings: 10 days
Summary of the method: as §1

[10] = test system: barnyardgrass (Echinochloa crus-galli); experiment: as above; settings: 10 days
Summary of the method: as §1

kochia (Bassia scoparia) [11] = experiment: as above; settings: 10 days
Summary of the method: as §1

[12] = test system: ragweed (common ragweed, Ambrosia artemisiifolia); experiment: as above; settings: 10 days
Summary of the method: as §1

[13] = test system: blackgrass (Alopecurus myosuroides); experiment: as above; settings: 10 days
Summary of the method: as §1

[14] = test system: wheat (Triticum aestivum); experiment: Test A preemergence soil spray, visual injury rating 0-100; settings: 10 days, 0 = no effect, 100 = complete control
Summary of the method: as §1

soybean (Glycine max) [15] = experiment: as above; settings: 10 days, 0 = no effect, 100 = complete control
Summary of the method: as §1

[16] = test system: palmer (palmer amaranth, palmer pigweed, Amaranthus palmeri); experiment: as above; settings: 10 days, 0 = no effect, 100 = complete control
Summary of the method: as §1

[17] = test system: oat, wild (wild oat, Avena fatua); experiment: as above; settings: 10 days, 0 = no effect, 100 = complete control
Summary of the method: as §1

corn (Zea mays) [18] = experiment: as above; settings: 10 days, 0 = no effect, 100 = complete control
Summary of the method: as §1

[19] = test system: green foxtail (Setaria viridis); experiment: as above; settings: 10 days, 0 = no effect, 100 = complete control
Summary of the method: as §1

[20] = test system: ryegrass, Italian (italian ryegrass, Lolium multiflorum); experiment: as above; settings: 10 days, 0 = no effect, 100 = complete control
Summary of the method: as §1

[21] = test system: barnyardgrass (Echinochloa crus-galli); experiment: as above; settings: 10 days, 0 = no effect, 100 = complete control
Summary of the method: as §1

kochia (Bassia scoparia) [22] = experiment: as above; settings: 10 days, 0 = no effect, 100 = complete control
Summary of the method: as §1

[23] = test system: ragweed (common ragweed, Ambrosia artemisiifolia); experiment: as above; settings: 10 days, 0 = no effect, 100 = complete control
Summary of the method: as §1

[24] = test system: blackgrass (Alopecurus myosuroides); experiment: as above; settings: 10 days, 0 = no effect, 100 = complete control
Summary of the method: as §1

[25] = test system: barnyardgrass (Echinochloa crusgalli); experiment: Test B flooded paddy test, visual plant response rating 0-100; settings: 250 g ai/ha, Flood, applied to paddy water, evaluated after 13 days
Summary of the method: (§2)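 Compounds applied to standing paddy water (3 cm above soil, maintained for the test duration) on 2-leaf-stage plants; visual rating vs controls at 13 days, greenhouse.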

rice (Oryza sativa) = experiment: as above; settings: 250 g ai/ha, Flood, applied to paddy water, evaluated after 13 days
Summary of the method: as §2

[26] = test system: sedge, umbrella (small-flower umbrella sedge, Cyperus difformis); experiment: as above; settings: 250 g ai/ha, Flood, applied to paddy water, evaluated after 13 days
Summary of the method: as §2

[27] = test system: ducksalad (Heteranthera limosa); experiment: as above; settings: 250 g ai/ha, Flood, applied to paddy water, evaluated after 13 days
Summary of the method: as §2

[28] = 31 g ai/ha, postemergence, 0 = no effect, 100 = complete control
[29] = Postemergence, 125 g ai/ha, 0 is no effect, 100 is complete control

SMILES: CNC(=O)C1CCC(NC(=O)C2(C)CN(c3cc(F)cc(F)c3)C(=O)O2)C1 (stereo not shown) [Compound 14]
- Wheat plant response rating (0-100) [1, 28]: 0
- Wheat plant response rating (0 to 100 scale) [1, 29]: 0
- Galium plant response rating (0-100) [2, 28]: 0
- Galium plant response rating (0 to 100 scale) [2, 29]: 0
- Soybean plant response rating (0-100) (soybean (Glycine max) [3]; [28]): 0
- Soybean plant response rating (0 to 100 scale) (soybean (Glycine max) [3]; [29]): 0
- Amaranth, Palmer plant response rating (0-100) [4, 28]: 0
- Amaranth, Palmer / Pigweed, Palmer plant response rating (0 to 100 scale) [4, 29]: 0
- Horseweed plant response rating (0-100) [5, 28]: 0
- Horseweed plant response rating (0 to 100 scale) [5, 29]: 0
- Oat, Wild plant response rating (0-100) [6, 28]: 0
- Oat, Wild plant response rating (0 to 100 scale) [6, 29]: 0
- Corn plant response rating (0-100) (corn (Zea mays) [7]; [28]): 0
- Corn plant response rating (0 to 100 scale) (corn (Zea mays) [7]; [29]): 20
- Foxtail, Green plant response rating (0-100) [8, 28]: 0
- Foxtail, Green plant response rating (0 to 100 scale) [8, 29]: 0
- Ryegrass, Italian plant response rating (0-100) [9, 28]: 0
- Ryegrass, Italian plant response rating (0 to 100 scale) [9, 29]: 0
- Barnyardgrass plant response rating (0-100) [10, 28]: 0
- Barnyardgrass plant response rating (0 to 100 scale) [10, 29]: 0
- Kochia plant response rating (0-100) (kochia (Bassia scoparia) [11]; [28]): 0
- Kochia plant response rating (0 to 100 scale) (kochia (Bassia scoparia) [11]; [29]): 0
- Ragweed plant response rating (0-100) [12, 28]: 0
- Ragweed plant response rating (0 to 100 scale) [12, 29]: 0
- Blackgrass plant response rating (0-100) [13, 28]: 0
- Blackgrass plant response rating (0 to 100 scale) [13, 29]: 0
- Wheat plant response rating (0-100) ([14]; 31 g ai/ha): 0
- Wheat plant response rating (0 to 100 scale) ([14]; 125 g ai/ha): 0
- Soybean plant response rating (0-100) (soybean (Glycine max) [15]; 31 g ai/ha): 0
- Soybean plant response rating (0 to 100 scale) (soybean (Glycine max) [15]; 125 g ai/ha): 0
- Amaranth, Palmer plant response rating (0-100) ([16]; 31 g ai/ha): 0
- Amaranth, Palmer plant response rating (0 to 100 scale) ([16]; 125 g ai/ha): 0
- Oat, Wild plant response rating (0-100) ([17]; 31 g ai/ha): 0
- Oat, Wild plant response rating (0 to 100 scale) ([17]; 125 g ai/ha): 0
- Corn plant response rating (0-100) (corn (Zea mays) [18]; 31 g ai/ha): 0
- Corn plant response rating (0 to 100 scale) (corn (Zea mays) [18]; 125 g ai/ha): 0
- Foxtail, Green plant response rating (0-100) ([19]; 31 g ai/ha): 0
- Foxtail, Green plant response rating (0 to 100 scale) ([19]; 125 g ai/ha): 0
- Ryegrass, Italian plant response rating (0-100) ([20]; 31 g ai/ha): 0
- Ryegrass, Italian plant response rating (0 to 100 scale) ([20]; 125 g ai/ha): 0
- Barnyardgrass plant response rating (0-100) ([21]; 31 g ai/ha): 0
- Barnyardgrass plant response rating (0 to 100 scale) ([21]; 125 g ai/ha): 0
- Kochia plant response rating (0-100) (kochia (Bassia scoparia) [22]; 31 g ai/ha): 0
- Kochia plant response rating (0 to 100 scale) (kochia (Bassia scoparia) [22]; 125 g ai/ha): 0
- Ragweed plant response rating (0-100) ([23]; 31 g ai/ha): 0
- Ragweed plant response rating (0 to 100 scale) ([23]; 125 g ai/ha): 30
- Blackgrass plant response rating (0-100) ([24]; 31 g ai/ha): 0
- Blackgrass plant response rating (0 to 100 scale) ([24]; 125 g ai/ha): 0
- Plant response rating, Barnyardgrass (0 to 100 scale, 0 is no effect and 100 is complete control) [25]: 0
- Plant response rating, Rice (0 to 100 scale, 0 is no effect and 100 is complete control) (rice (Oryza sativa)): 0
- Plant response rating, Sedge, Umbrella (0 to 100 scale, 0 is no effect and 100 is complete control) [26]: 0
- Plant response rating, Ducksalad (0 to 100 scale, 0 is no effect and 100 is complete control) [27]: 0
